Source: patent publication US6177474A, “Polyhydroxyphenol derivatives and preventive and therapeutic agents for bone and cartilage diseases containing the same” (Hoechst Marion Roussel, priority 1996, dated 2001)

System: bone cells containing osteoclast cells
Assay: Pit formation assay: inhibition of osteolysis (absorption pits on ivory slices)
Type: cell-based, ICR mice
Conditions: for inhibition at 10 µM: Mus musculus, Osteoclast, read-out: Ratio of inhibition (%)
Experimental: ICR mice 11-12 days old (purchased from Charles River Japan) were euthanized by anesthesia with ether and immediately immersed in 70% ethanol for disinfection. By the use of ophthalmologist scissors and pincers sterilized in advance with ethanol, femur and tibia were excised from the sacrificed mice and chopped into small pieces in an α-MEM culture medium (purchased from Flow Laboratories Corp.). containing 5% FBS (purchased from Irvine Scientific Corp.), 100 U/ml penicillin and 100 μg/ml streptomycin. The supernatant formed consequently was recovered by pipeting, cleaned with the culture broth, and suspended in a 5% FBS α-MEM culture broth to obtain bone cells containing osteoclast cells. The supernatant of a bone cell-floating liquid formed after 3 minutes' standing of the bone cells at rest was recovered and passed through a mesh (cell strainer, 70 μm, purchased from Falcon Corp.). The filtrate was adjusted to a cell concentration of 1×10^7 /ml and used for the pit formation assay.
An ivory piece was cut into slices, 150 μm in thickness, by the use of a precision low-speed cutting machine (purchased from Buehler Corp.). Cylindrical holes, 6 mm in diameter, were perforated in the slices by the use of a one-hole punch. The ivory slices were immersed in 70% ethanol and subjected therein to an ultrasonic cleaning treatment twice each for five minutes and washed three times with a sterilized PBS and twice with the culture medium. The ivory slices were set in place on a 96-hole culture plate (purchased from Falcon Corp.). The perforated ivory slices on the culture plate, with a culture broth containing a given compound of the present invention prepared in a concentration of 2×10^-5 M added in a fixed volume of 100 μl (final medicine concentration 1×10^-5 M) to each of the holes and a culture broth containing prepared bone cells in a concentration of 1×10^7 /ml placed in each of the holes, were cultured for three days in a 10% CO2 incubator at 37° C. After the culture, the ivory slices were placed in an aqueous 2 N sodium hydroxide and the cells on the slices were removed by the use of a rubber spatula. The ivory slices were washed with water and methanol. The absorption pits formed in the ivory slices were dyed with Coomassie Brilliant Blue and were counted under a microscope. Though the numbers of absorption pits were naturally found to disperse among test lots, depending on the ratios of varying specie s of cells in the bone cell suspensions and the lots of animals used, satisfactorily uniform test results were found in one and the same test lot. The ratio of inhibition of osteolysis was calculated on the 100% scale, in which 0% stands for the number of absorption pits found in the culture broth in the presence of rPTH (1×10^-8 M) and in the absence of a medicine and 100% for total absence of absorption pit.
The test described above was performed in a total of ten runs, Tests 1-10.
In the columns titled "Added medicine No." found in Table 2 and Table 3, the symbol (-) denotes a control involving no addition of medicine and the numerical No. denotes the No. of the compound mentioned above.

[1] = 72 h, compound 10^-5 M, 0% = pits with rPTH (1×10^-8 M) without medicine, 100% = no absorption pit

Molecule	No. of absorption pits (Mean ± SD) (72 h, 10 µM)	inhibition at 10 µM [1]	No. of absorption pits (Mean ± SD) (compound 10^-5 M, 3 days culture at 37° C., 10% CO2, control per test run given as (-))	Ratio of inhibition (%) (compound 10^-5 M, 0% = pits with rPTH (1×10^-8 M) without medicine, 100% = no absorption pit, 4320 min, 10 µM)
CC(C)=CCc1c(O)cc(O)c(C(=O)C(C)C)c1O [Compound 14, {3-(3-methyl-2-butenyl)-2,4,6-trihydroxyphenyl} (2-propyl) ketone]	26.0 ± 2.6	67.5%		
CC(C)=CCC1=C(O)C(O)(CC=C(C)C)C(=O)C(C(=O)C(C)C)=C1O (stereo not shown) [Compound 29, 2,4-bis(3-methyl-2-butenyl)-6-(2-methyl-1-oxopropyl)-2,3,5-trihydroxycyclohexa-3,5-dienone]	20.3 ± 2.1	79.5%		
CC(C)=CCOc1c(CC=C(C)C)c(C)c(C(=O)CC(C)C)c(O)c1CC=C(C)C [Compound 51, {3,5-bis(3-methyl-2-butenyl)-2-hydroxy-6-methyl-4-(3-methyl-2-butenyloxy)phenyl} (2-methylpropyl) ketone]	102.7 ± 6.2	42.8%		
CC(C)=CCC1=C(O)C(CC=C(C)C)(CC=C(C)C)C(=O)C(C(=O)Cc2ccccc2)=C1O [Compound 40, 3,5-dihydroxy-6-(phenylacetyl)-2,2,4-tris(3-methyl-2-butenyl)-cyclohexa-3,5-dienone]	4.9 ± 3.8	96.1%		
CC(C)=CCc1c(O)c(O)c(CC=C(C)C)c(C(=O)CC(C)C)c1O [Compound 25, {3,6-bis(3-methyl-2-butenyl)-2,4,5-trihydroxyphenyl} (2-methylpropyl) ketone]	0	100%		
CC(C)=CCCC(C)=CCC1(CC=C(C)CCC=C(C)C)C(=O)C(C(=O)CC(C)C)=C(O)C=C1O (stereo not shown) [Compound 21, 2,2-bis(3,7-dimethyl-2,6-octadienyl)-3,5-dihydroxy-6-(3-methyl-1-oxobutyl)cyclohexa-3,5-dienone]	3.5 ± 1.4	98.1%		
CC(C)=CCC1(CC=C(C)C)C(=O)C(C(=O)C(C)C)=C(O)C=C1O [Compound 13, 2,2-bis(3-methyl-2-butenyl)-3,5-dihydroxy-6-(2-methyl-1-oxopropyl)cyclohexa-3,5-dienone]	16.8 ± 3.6	79%		
CC(C)=CCCC(C)=CCc1c(O)cc(O)c(C(=O)Cc2ccccc2)c1O [Compound 46, {3-(3,7-dimethyl-2,6-octadienyl)-2,4,6-trihydroxyphenyl} (phenylmethyl) ketone]	125.3 ± 12.6	44.3%		
O=C(Cc1ccccc1)c1c(O)cc(O)cc1O [Compound 38, (phenylmethyl) (2,4,6-trihydroxyphenyl) ketone]	55.8 ± 7.7	57.9%		
{6-(3-methyl-2-butenyl)-2,4,5-trihydroxyphenyl} (2-methylpropyl) ketonemono(3-methyl-2-butenyl) ether [Compound 27]			38.8 ± 6.6	80.8%
CC(C)CC(=O)C1=C(O)C(Cc2ccccc2)=C(O)C(O)(Cc2ccccc2)C1=O (stereo not shown) [Compound 33, 2,4-bisbenzyl-6-(3-methyl-1-oxobutyl)-2,3,5-trihydroxycyclohexa-3,5-dienone]	9.8 ± 1.8	95.1%		
